In DBAASP one finds MIC data, which are given here for eleven compounds.

Among the test systems are Escherichia coli; Listeria innocua; Micrococcus luteus A270; Streptococcus mutans; Bacillus subtilis; Enterobacter cloacae; Pseudomonas aeruginosa; Staphylococcus aureus; Bacillus megaterium Bm11; Staphylococcus capitis 1; Escherichia coli K-12; Bacillus subtilis 168.
Holding throughout (test): ≥ marks a high value that may be exact or a test limit, other limits are often not marked, values filed in µg/mL are converted to µM
Assay [1] relates to Salmonella enterica subsp. enterica serovar Enteritidis.
Assay [2] deals with Bacillus subtilis ATCC 6633.
For assay [3], the system named is Candida albicans ATCC 90028.
Assay [4] deals with Escherichia coli ATCC 8739.
Assay [5] concerns Staphylococcus aureus ATCC 43300.
In assay [6] the test system is Staphylococcus aureus ATCC 6538.
Assay [7] relates to Mycobacterium tuberculosis H37Rv.
Assay [8] has as its system Bacillus anthracis Sterne 34F2.
Assay [9] relates to Bacillus subtilis ATCC 9372.
The subject of assay [10] is Burkholderia thailandensis.
Assay [11] has as its system Escherichia coli ATCC 25922.
Assay [12] has as its system Pseudomonas aeruginosa ATCC 27853.
Assay [13] concerns Salmonella enterica subsp. enterica serovar Typhi.
Assay [14] relates to Staphylococcus aureus ATCC 25923.
Assay [15] deals with Candida albicans ATCC 10231.
In assay [16] the test system is Staphylococcus aureus Cowan 1.
The subject of assay [17] is Yersinia pseudotuberculosis YPIII.
The subject of assay [18] is Staphylococcus aureus USA 300.
The test system of assay [19] is Pseudomonas aeruginosa PAO1.

Converted amounts (≈) assume the structure as drawn.

Usually MIC stands for the smallest concentration in the dilution series that meets the test's criterion for growth inhibition. A lower MIC goes with greater potency. With `CSCC[C@H](N)C(=O)N[C@@H](CC(C)C)C(=O)N[C@H](C(=O)N[C@@H](C)C(=O)N[C@@H](CCC(=O)O)C(=O)N[C@@H](CCC(=O)O)C(=O)N[C@@H](CCCCN)C(=O)N[C@@H](C)C(=O)N[C@@H](C)C(=O)N[C@H](C(=O)N[C@H](C(=O)N[C@@H](C)C(=O)N[C@@H](Cc1ccccc1)C(=O)O)[C@@H](C)O)C(C)C)[C@@H](C)O` [MLTAEEKAAVTAF], the MIC against Escherichia coli is 4 µM (≈ 5.53 µg/mL); against Listeria innocua, 6 µM (≈ 8.29 µg/mL); with Micrococcus luteus A270 it was 4 µM (≈ 5.53 µg/mL); in assay [1], 6 µM (≈ 8.29 µg/mL).
As for `CC[C@H](C)[C@H](NC(=O)CN)C(=O)N[C@@H](Cc1ccccc1)C(=O)N[C@@H](CO)C(=O)N[C@H](C(=O)N[C@H](C(=O)N[C@@H](Cc1ccccc1)C(=O)N[C@@H](CCCCN)C(=O)N[C@@H](C)C(=O)NCC(=O)N[C@@H](CCCCN)C(=O)NCC(=O)N[C@H](C(=O)N[C@H](C(=O)N[C@H]1CSSC[C@@H](C(=O)O)NC(=O)[C@H](CC(C)C)NC(=O)CNC(=O)[C@H]([C@@H](C)O)NC(=O)[C@H](CC(C)C)NC(=O)CNC1=O)C(C)C)[C@@H](C)CC)C(C)C)[C@@H](C)O` [GIFSTVFKAGKGIVCGLTGLC], the MIC was 12.5 µM (≈ 25.9 µg/mL) in assay [2]; at least 50 µM in assay [3]; 25 µM (≈ 51.7 µg/mL) in assay [4]; 12.5 µM (≈ 25.9 µg/mL) in assay [5]; 3.1 µM (≈ 6.42 µg/mL) in assay [6].
On to `C[C@H](NC(=O)[C@@H]1CCCN1C(=O)[C@H](CCC(=O)O)NC(=O)[C@H](CCC(N)=O)NC(=O)[C@H](CCCCN)NC(=O)[C@@H]1CCCN1C(=O)[C@H](C)NC(=O)[C@@H]1CCCN1C(=O)[C@H](CCCCN)NC(=O)[C@@H]1CCCN1C(=O)[C@H](CCCCN)NC(=O)[C@@H](NC(=O)[C@@H](NC(=O)[C@H](CCCN=C(N)N)NC(=O)[C@@H]1CCCN1C(=O)[C@H](CCCCN)NC(=O)[C@@H](N)CCCN=C(N)N)[C@@H](C)O)[C@@H](C)O)C(=O)N[C@H](C(=O)N[C@@H](CCC(=O)O)C(=O)N[C@@H](CCC(=O)O)C(=O)O)[C@@H](C)O` [RKPRTTKPKPAPKQEPATEE], for which the MIC in assay [7] was at least 87.4 µM.
`CC[C@H](C)[C@H](NC(=O)[C@H](CCC(N)=O)NC(=O)[C@H](CCCCN)NC(=O)[C@@H](NC(=O)[C@H](CCC(=O)O)NC(=O)[C@H](CCC(N)=O)NC(=O)[C@H](CC(C)C)NC(=O)[C@@H](NC(=O)[C@@H](N)CCCN=C(N)N)C(C)C)[C@@H](C)CC)C(=O)N[C@@H](CC(C)C)C(=O)N[C@@H](CCCCN)C(=O)O` [RVLQEIKQILK] showed a minimal inhibitory concentration (MIC) against Streptococcus mutans of at least 183 µM.
On to `CC(C)C[C@H](NC(=O)[C@H](CCC(=O)O)NC(=O)[C@@H](NC(=O)[C@H](CC(=O)O)NC(=O)[C@H](CCCCN)NC(=O)[C@H](CC(N)=O)NC(=O)[C@H](C)NC(=O)[C@H](CCCCN)NC(=O)[C@H](CCCCN)NC(=O)CNC(=O)[C@H](CCCCN)NC(=O)[C@@H](N)CO)C(C)C)C(=O)N[C@@H](C)C(=O)N[C@@H](CCCN=C(N)N)C(=O)NCC(=O)O` [SKGKKANKDVELARG], for which the MIC in assay [8] was at least 100 µM; in assay [9], at least 100 µM; in assay [10], at least 50 µM.
`CC(C)C[C@H](NC(=O)[C@H](CCCCN)NC(=O)[C@H](CCCN=C(N)N)NC(=O)[C@H](Cc1ccccc1)NC(=O)[C@H](Cc1ccccc1)NC(=O)[C@H](CCCCN)NC(=O)[C@H](CCCCN)NC(=O)[C@H](Cc1ccccc1)NC(=O)[C@H](CCCN=C(N)N)NC(=O)[C@H](CCCCN)NC(=O)[C@@H](NC(=O)[C@H](CC(C)C)NC(=O)[C@@H](N)CCCCN)C(C)C)C(=O)N[C@@H](CCCCN)C(=O)N[C@@H](CCCCN)C(=O)N[C@@H](CO)C(N)=O` [KLVKRFKKFFRKLKKS]: the MIC was at least 61.5 µM in the assay on Bacillus subtilis; 30.7 µM (≈ 64 µg/mL) in [3]; at least 123 µM against Enterobacter cloacae; 30.7 µM (≈ 64 µg/mL) in [11]; 15.4 µM (≈ 32 µg/mL) in the assay with Escherichia coli; 61.5 µM (≈ 128 µg/mL) in [12]. Moreover, the MIC was found to be 7.69 µM (≈ 16 µg/mL) against Pseudomonas aeruginosa, 3.84 µM (≈ 8 µg/mL) in assay [13], 0.961 µM (≈ 2 µg/mL) in [14] and 61.5 µM (≈ 128 µg/mL) in the assay on Staphylococcus aureus.
With `CC[C@H](C)[C@H](NC(=O)CNC(=O)[C@H](C)NC(=O)[C@H](CC(C)C)NC(=O)[C@@H](NC(=O)[C@H](CCCN=C(N)N)NC(=O)CNC(=O)[C@@H](NC(=O)[C@H](CC(C)C)NC(=O)[C@@H]1CCCN1C(=O)[C@H](CC(C)C)NC(=O)[C@@H](N)Cc1ccccc1)[C@@H](C)CC)C(C)C)C(=O)N[C@@H](CC(C)C)C(N)=O` [FLPLIGRVLAGIL], the minimum inhibitory concentration (MIC) is 2.5 µM (≈ 3.45 µg/mL) with Bacillus megaterium Bm11; 2.5 µM (≈ 3.45 µg/mL) in [15]; above 40 µM in assay [11]; 2.5 µM (≈ 3.45 µg/mL) in assay [16]; 5 µM (≈ 6.9 µg/mL) against Staphylococcus capitis 1; 20 µM (≈ 27.6 µg/mL) in assay [17].
In the case of `CC(=O)N[C@@H](C)C(=O)N[C@@H](CCC(=O)O)C(=O)N[C@@H](CCCN=C(N)N)C(=O)N[C@H](C(=O)NCC(=O)N[C@@H](C)C(=O)NCC(=O)N[C@@H](C)C(=O)N1CCC[C@H]1C(=O)N[C@H](C(=O)N[C@@H](Cc1ccc(O)cc1)C(=O)N[C@@H](CC(C)C)C(N)=O)C(C)C)C(C)C` [AERVGAGAPVYL], the MIC in assay [8] was at least 100 µM; in assay [9] it was at least 100 µM; in assay [10] it was at least 50 µM.
In the case of `CC[C@H](C)[C@H](NC(=O)[C@H](CCCN=C(N)N)NC(=O)[C@H](CCC(N)=O)NC(=O)[C@@H](NC(=O)[C@@H](NC(=O)[C@H](CCCN=C(N)N)NC(=O)[C@H](CCCCN)NC(=O)[C@H](Cc1ccccc1)NC(=O)[C@H](CCC(=O)O)NC(=O)CN)[C@@H](C)CC)C(C)C)C(=O)N[C@@H](CCCCN)C(=O)N[C@@H](CC(=O)O)C(=O)N[C@@H](Cc1ccccc1)C(=O)N[C@@H](CC(C)C)C(=O)N[C@@H](CCCN=C(N)N)C(=O)N[C@@H](CC(N)=O)C(=O)N[C@@H](CC(C)C)C(=O)N[C@H](C(N)=O)C(C)C` [GEFKRIVQRIKDFLRNLV], the minimum inhibitory concentration (MIC) (with Escherichia coli K-12; in assay [18]) was at least 60 µM each time.
As to `NCCCC[C@H](NC(=O)[C@H](Cc1c[nH]c2ccccc12)NC(=O)[C@H](Cc1c[nH]c2ccccc12)NC(=O)[C@H](Cc1c[nH]c2ccccc12)NC(=O)[C@H](CCCN=C(N)N)NC(=O)[C@H](CCCN=C(N)N)NC(=O)[C@@H](N)CCCN=C(N)N)C(=O)O` [RRRWWWK], the MIC against Streptococcus mutans was at least 53.3 µM.
In the case of `CC(C)C[C@H](NC(=O)[C@H](CC(C)C)NC(=O)[C@H](CCCCN)NC(=O)CNC(=O)[C@H](CC(C)C)NC(=O)[C@H](CC(C)C)NC(=O)[C@H](CO)NC(=O)[C@H](CC(C)C)NC(=O)[C@H](CC(C)C)NC(=O)[C@@H]1CCCN1C(=O)[C@H](CC(C)C)NC(=O)[C@H](CC(C)C)NC(=O)CN)C(N)=O` [GLLPLLSLLGKLL], the MIC in the assay with Bacillus subtilis 168 is 3.12 µM (≈ 4.21 µg/mL); in the assay with Escherichia coli K-12, 25 µM (≈ 33.7 µg/mL); in assay [19], above 100 µM; in [18], 1.56 µM (≈ 2.1 µg/mL).
